# From patent US20220401440A1, “DOSING REGIMENS FOR A PROTEIN KINASE C INHIBITOR” (IDEAYA BIOSCIENCES, INC., priority 2019, published 2022)
# Where “and” joins values, the source holds several entries; their conditions need not be identical. Identical values can stand only once. Like-named read-outs stand apart in the source and are kept apart here.
# Legend:
# [1] = Phase 1/2 study: plasma pharmacokinetics of Compound (I) in patients (LC-MS/MS, non-compartmental analysis); type: in vivo, human
# Experimental: The following example presents a phase 1/2 study of Compound (I) in patients with solid tumors harboring GNAQ/11 mutations or PRKC fusions.
# Patients with MUM were sequentially enrolled into Cohort 1 or Cohort 2. Enrollment into Cohort 2 was not initiated until enrollment into Cohort 1 was completed and the dose considered safe. • a. Cohort 1. 6 patients were sequentially enrolled and received 300 mg twice a day (BID), daily, for 28-day treatment cycles. • b. Cohort 2. 6 patients were sequentially enrolled and received 400 mg BID, preceded by an initial 7-day 200 mg BID run-in period, for 28-day treatment cycles. All patients continue to receive treatment with Compound (I) unless the subject experiences one or more of the following: • Adverse event • Lost to follow-up • Physician decision • Progressive disease • Study termination by the Sponsor • Patient/guardian decision • Protocol deviation • Non-compliance with protocol • Death • Pregnancy NUMBER OF SUBJECTS: 12 patients
# The following example presents pharmacokinetic results from the study as described in Example 1.
# Blood samples were collected on Cycle 1 Day 1 and Day 15 from patients who were administered 300 mg BID of Compound (I), and on Cycle 1 Day 8 and Day 22 from patients who were administered 200 mg BID for 7 days followed by 400 mg BID of Compound (I) for the remainder of the treatment cycle. The plasma samples were processed by protein precipitation (see Ahuja S and Dong M. W, Handbook of Pharmaceutical Analysis by HPLC, Elsevier Inc., Chapter 17, page 433, 2005) and analyzed using an LC-MS/MS method; Quantification was achieved using Compound (I) peak area to internal standard (3-amino-N-(3-(4-amino-4-(methyl-d3)piperidin-1-yl)pyridin-2-yl)-6-(3-(trifluoromethyl)pyridin-2-yl)pyrazine-2-carboxamide) peak area ratios. Concentrations of the calibration curve standards, quality control samples, and patient samples were determined by the method of 1/x^2 weighted least squares linear regression.
# The Pharmacokinetic parameters were calculated using Phoenix WinNonlin software (non-compartmental analysis).
# [2] = Hypotension studies: adverse events, single agent Compound (I) BID schedule (Table 5); type: in vivo, human
# [3] = Hypotension studies: adverse events, single-agent Compound (I), 300 mg BID vs 400 mg BID with 7-day 200 mg run-in (Tables 6, 7); type: in vivo
# Text: Patients with MUM were sequentially enrolled into Cohort 1 or Cohort 2. Enrollment into Cohort 2 was not initiated until enrollment into Cohort 1 was completed and the dose considered safe. • a. Cohort 1. […] Cohort 2. […] All patients continue to receive treatment with Compound (I) unless the subject experiences one or more of the following: • Adverse event • Lost to follow-up • Physician decision • Progressive disease • Study termination by the Sponsor • Patient/guardian decision • Protocol […]
# [4] = tested on: metastatic uveal melanoma (MUM); conditions: cited from earlier work
# [5] = cited from earlier work; for Dose limiting toxicities (DLTs): evaluable patients
# [6] = 300 mg BID, N = 18, regardless of study drug relationship
# [7] = 400 mg, N = 6, regardless of study drug relationship
# [8] = All BID Patients, N = 30, regardless of study drug relationship
# [9] = 300 mg BID, N = 26, regardless of study drug relationship
# [10] = 400 mg BID with 7-day 200 mg run-in, N = 30
# [11] = 400 mg BID with 7-day 200 mg run-in, N = 30, regardless of study drug relationship
# [12] = All Patients, N = 56, regardless of study drug relationship
# [13] = cohort that received BID dosing of 200 to 400 mg
compound,measurement,setting,value
"CC1(N)CCN(c2cccnc2NC(=O)c2nc(-c3ncccc3C(F)(F)F)cnc2N)CC1 [Compound (I), 3-amino-N-(3-(4-amino-4-methylpiperidin-1-yl)pyridin-2-yl)-6-(3-(trifluoromethyl)pyridin-2-yl)pyrazine-2-carboxamide]",Tmax,"[1]; individual patients, 400 mg BID with 200 mg run-in, C1 Day 22",2 h and 1 h and 6 h and 0.5 h and 4 h
same,"mean Cmin at steady state, higher at 400 mg BID (with 200 mg run-in) than at 300 mg BID",[1]; steady state,~40%
same,mean steady state exposure (200 mg BID 7 days then 400 mg BID) vs 300 mg BID,[1]; steady state,higher mean steady state exposure
same,"Hypotension, all grades",[2]; [6],3 (16.7)
same,"Hypotension, grade >3",[2]; [6],0
same,"Hypotension, all grades",[2]; [7],4 (66.7)
same,"Hypotension, grade >3",[2]; [7],1 (16.7)
same,"Hypotension, all grades",[2]; [8],7 (23.3)
same,"Hypotension, grade >3",[2]; [8],1 (3.3)
same,"Hypotension, all grades, treatment-emergent, suspected to be study related","[3]; 300 mg BID, N = 26",1 (3.8) n (%)
same,"Hypotension, grade 3/4, treatment-emergent, suspected to be study related","[3]; 300 mg BID, N = 26",0 n (%)
same,"Hypotension, all grades",[3]; [9],1 (3.8) n (%)
same,"Hypotension, grade 3/4",[3]; [9],0 n (%)
same,"Hypotension, all grades, treatment-emergent, suspected to be study related",[3]; [10],2 (6.7) n (%)
same,"Hypotension, grade 3/4, treatment-emergent, suspected to be study related",[3]; [10],0 n (%)
same,"Hypotension, all grades",[3]; [11],4 (13.3) n (%)
same,"Hypotension, grade 3/4",[3]; [11],0 n (%)
same,"Hypotension, all grades, treatment-emergent, suspected to be study related","[3]; All Patients, N = 56",3 (5.4) n (%)
same,"Hypotension, grade 3/4, treatment-emergent, suspected to be study related","[3]; All Patients, N = 56",0 n (%)
same,"Hypotension, all grades",[3]; [12],5 (8.9) n (%)
same,"Hypotension, grade 3/4",[3]; [12],0 n (%)
same,frequency of hypotension at 400 mg BID with 200 mg run-in vs 400 mg BID alone,[3]; in vivo,less frequently
same,confirmed partial responses (PRs),"[4]; 68 patients, QD and BID, as of September 2018, preliminary",six
same,unconfirmed PRs,"[4]; 68 patients, as of September 2018, preliminary",two
same,confirmed PRs,[4]; [13],Four
same,patients with SD as best response (2 being unconfirmed PRs),[4]; [13],18
same,Dose limiting toxicities (DLTs),[5]; BID schedule,2 of 17
same,maximum tolerated dose,[5]; BID schedule,400 mg BID
same,Dose limiting toxicities (DLTs),[5]; QD schedule,7 of 38
same,maximum tolerated dose,[5]; QD schedule,500 mg QD
same,most common DLT,"[5]; human, in vivo",hypotension
same,recommended dose for expansion (RDE),"[5]; human, in vivo",300 mg BID
